Each block holds one compound with its values, some of them ahead of it.
Columns and labels:
[1] = target: T1, AldDH (acylating aldehyde dehydrogenase, PduP) (Rhodopseudomonas palustris, UniProt Q21A49); experiment: X-ray crystal structure, […] Å; type: binding; conditions: active site; propionyl-CoA or CoA fitted; pH 4.8; also in one site of 5JFN, where Cys330 is S-propionylated (covalent)
T1 construct: gene RPC_1174; N-terminal encapsulation peptide kept

[2] = target: acylating aldehyde dehydrogenase (AldDH) from Rhodopseudomonas palustris BisB18, Strep-tagged (Rhodopseudomonas palustris BisB18); experiment: SEC; gel filtration on HiLoad 16/600 Superdex 200 pg, 20 mM MOPS/KOH pH 7.5, 50 mM KCl
[3] = target: acylating aldehyde dehydrogenase (AldDH) from Rhodopseudomonas palustris BisB18, Strep-tagged (Rhodopseudomonas palustris BisB18); experiment: crystal structure; AldDH co-crystallised with propionyl-CoA at pH 4.8, space group P 1, 2.5 Å
[4] = target: acylating aldehyde dehydrogenase (AldDH) from Rhodopseudomonas palustris BisB18, Strep-tagged (Rhodopseudomonas palustris BisB18); experiment: crystal structure; AldDH co-crystallised with NAD+ at pH 4.8, space group P2_(1), 2.3 Å, twinned
[5] = target: acylating aldehyde dehydrogenase (AldDH) from Rhodopseudomonas palustris BisB18, Strep-tagged (Rhodopseudomonas palustris BisB18); experiment: crystal structure; AldDH co-crystallised with propionyl-CoA at pH 8.1, space group P 2_(1), 1.9 Å; CoA and S-propionylcysteine in the active sites
[6] = target: T1, AldDH (acylating aldehyde dehydrogenase, PduP); experiment: X-ray crystal structure, […] Å; type: binding; conditions: active site; pH 4.8, 5 mM NAD+
[7] = target: T1, AldDH (acylating aldehyde dehydrogenase, PduP); experiment: NAD+ reduction monitored at […] nm; type: biochemical; conditions: 5 mM NAD+, 0.5 mM CoA, 200 mM MOPS/KOH pH 7.5; kcat per tetrameric enzyme; read-out: apparent KM
[8] = target: T1, AldDH (acylating aldehyde dehydrogenase, PduP); experiment: X-ray crystal structure, […] Å; type: binding; conditions: active site, acylated enzyme (Cys330 S-propionylated from propionyl-CoA); crystals at pH 8.1

T1 sequence (Q21A49 entry or part of it): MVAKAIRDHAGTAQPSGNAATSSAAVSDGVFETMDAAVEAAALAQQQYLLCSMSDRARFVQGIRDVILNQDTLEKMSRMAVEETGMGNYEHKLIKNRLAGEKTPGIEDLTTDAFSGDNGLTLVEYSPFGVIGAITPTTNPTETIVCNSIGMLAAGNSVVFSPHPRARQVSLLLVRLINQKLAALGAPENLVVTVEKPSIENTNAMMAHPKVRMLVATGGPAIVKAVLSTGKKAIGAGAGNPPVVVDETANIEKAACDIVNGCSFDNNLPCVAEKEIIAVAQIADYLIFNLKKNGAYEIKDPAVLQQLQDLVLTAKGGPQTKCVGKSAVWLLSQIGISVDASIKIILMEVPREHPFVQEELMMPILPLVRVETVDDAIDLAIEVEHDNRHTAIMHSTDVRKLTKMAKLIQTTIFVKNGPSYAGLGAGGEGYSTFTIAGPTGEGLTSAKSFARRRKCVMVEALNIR

Compound: CCC(=O)SCCNC(=O)CCNC(=O)[C@H](O)C(C)(C)COP(=O)(O)OP(=O)(O)OC[C@H]1O[C@@H](n2cnc3c(N)ncnc32)[C@H](O)[C@@H]1OP(=O)(O)O [propionyl-CoA]
X-ray crystal structure, 2.52 Å [1]: we found electron density that allowed the fitting of either propionyl-CoA or CoA

stoichiometry N [2]: 4 | stoichiometry N [3]: 4 | stoichiometry N [4]: 4 | stoichiometry N [5]: 4
Compound: acylating aldehyde dehydrogenase (AldDH) from Rhodopseudomonas palustris BisB18, Strep-tagged (enzyme)

Compound: NC(=O)c1ccc[n+]([C@@H]2O[C@H](COP(=O)(O)OP(=O)(O)OC[C@H]3O[C@@H](n4cnc5c(N)ncnc54)[C@H](O)[C@@H]3O)[C@@H](O)[C@H]2O)c1 [NAD^+]
X-ray crystal structure, 2.30 Å [6]: Electron density in the active sites allowed the fitting of NAD^+

Km [7]: 1200 ± 170 µM
Compound: CCC=O [propionaldehyde]

Compound: CC(C)(COP(=O)(O)OP(=O)(O)OC[C@H]1O[C@@H](n2cnc3c(N)ncnc32)[C@H](O)[C@@H]1OP(=O)(O)O)[C@@H](O)C(=O)NCCC(=O)NCCS [CoA]
X-ray crystal structure, 1.90 Å [8]: In three of the four active sites of the tetramer we also found coenzyme A bound
